# Measured values as given in patent US20140369933A1, “FLUORINE-18 LABELED HYDROGEN ION PROBES” (The Trustees of The University of Pennsylvania, priority 2011, published 2014).
# Assay: not given
# Conditions: parental compound, intravenous injection, renal excretion; cited from earlier work
row,Compound,"half-life, mostly renal clearance"
1,"O=S1(=O)OC(c2ccc(O)cc2)(c2ccc(O)cc2)c2ccccc21 [Phenol Red, phenolsulfonphthalein, reference compound]",20 to 30 min

# Assay: UV-VIS absorption maxima of indicator forms
# Format: physicochemical
# Conditions: acidic form of indicator
# Procedure: The values of pKa of the indicators were determined by UV-VIS spectroscopy from the pH dependence of absorption of their basic forms and other spectroscopic investigations of the products were performed by Beckman-Coulter DU 530 spectrophotometer using acetate, phosphate, TRIZMA, and borate buffers for different values of pH. The number of fluorine atoms in the molecule was also determined by comparison of the ratio of sample activity to absorption of the basic forms of indicators.
row,absorption maximum of acidic form,Compound
1,436 nm,"O=S1(=O)OC(c2ccc(O)cc2)(c2ccc(O)c([18F])c2)c2ccccc21 (stereo not drawn) [MFPR, monofluorophenol red]"
2,428 nm,"O=S1(=O)OC(c2ccc(O)c([18F])c2)(c2ccc(O)c([18F])c2)c2ccccc21 [DFPR, difluorophenol red]"

row,Compound,absorption maximum of acidic form
1,"O=S1(=O)OC(c2ccc(O)cc2)(c2ccc(O)cc2)c2ccccc21 [Phenol Red, phenolsulfonphthalein, reference compound]",433 nm

# Same assay, conditions: basic form of indicator
row,absorption maximum of basic form,Compound
1,558 nm,O=C1OC(c2ccc(O)cc2)(c2ccc(O)c([18F])c2)c2ccccc21 (stereo not drawn) [monofluorophenolphthalein]
2,553 nm,"O=C1OC(c2ccc(O)cc2)(c2ccc(O)cc2)c2ccccc21 [phenolphthalein, reference compound]"
3,668 nm,O=C1OC(c2cc([18F])c(O)c3ccccc23)(c2cc([18F])c(O)c3ccccc23)c2ccccc21 [difluoronaphtholphthalein]
4,597 nm,"Cc1cc(O)c(C(C)C)cc1C1(c2cc(C(C)C)c(O)cc2C)OS(=O)(=O)c2ccccc21 [Thymol Blue, thymolsulfonphthalein, reference compound]"
5,564 nm,O=C1OC(c2ccc(O)c([18F])c2)(c2ccc(O)c([18F])c2)c2ccccc21 [difluorophenolphthalein]
6,660 nm,monofluoronaphtholphthalein
7,572 nm,trifluorophenol red [TFPR]
8,653 nm,"O=C1OC(c2ccc(O)c3ccccc23)(c2ccc(O)c3ccccc23)c2ccccc21 [naphtholphthalein, reference compound]"

# Further lines, the compound ahead of its results:
row,Compound,absorption maximum of basic form
1,difluorocresolsulfonphthalein [DFCP],589 nm
2,"Cc1cc(O)c([18F])cc1C1(c2cc([18F])c(O)c([18F])c2C)OS(=O)(=O)c2ccccc21 (stereo not drawn) [TFCP, trifluorocresolsulfonphthalein]",592 nm
3,"Cc1cc(C2(c3ccc(O)c(C)c3)OS(=O)(=O)c3ccccc32)ccc1O [Cresol Red, ortho-cresolsulfonphthalein, reference compound]",572 nm
4,"Cc1cc(C2(c3cc(C)c(O)c([18F])c3)OS(=O)(=O)c3ccccc32)ccc1O (stereo not drawn) [MFCR, MonoFluoroCresol Red]",576 nm
5,"Cc1cc(O)c(C(C)C)cc1C1(c2cc(C(C)C)c(O)c([18F])c2C)OS(=O)(=O)c2ccccc21 (stereo not drawn) [MFTB, MonoFluoro Thymol Blue]",599 nm
6,"O=S1(=O)OC(c2ccc(O)cc2)(c2ccc(O)c([18F])c2)c2ccccc21 (stereo not drawn) [MFPR, monofluorophenol red]",564 nm
7,"Cc1c(C2(c3cc(C(C)C)c(O)c([18F])c3C)OS(=O)(=O)c3ccccc32)cc(C(C)C)c(O)c1[18F] [DFTB, difluorothymolsulfonphthalein]",605 nm
8,"O=S1(=O)OC(c2ccc(O)c([18F])c2)(c2ccc(O)c([18F])c2)c2ccccc21 [DFPR, difluorophenol red]",570 nm
9,"O=S1(=O)OC(c2ccc(O)cc2)(c2ccc(O)cc2)c2ccccc21 [Phenol Red, phenolsulfonphthalein, reference compound]",558 nm
10,monofluorocresolsulfonphthalein [MFCP],582 nm
11,"O=S1(=O)OC(c2ccc(O)c([18F])c2)(c2cc([18F])c(O)c([18F])c2)c2ccccc21 (stereo not drawn) [TFPR, trifluorophenol red]",572 nm
12,"Cc1cc(C2(c3cc(C)c(O)c([18F])c3)OS(=O)(=O)c3ccccc32)cc([18F])c1O [DFCR, DiFluoroCresol Red]",582 nm

# Assay: pKa of the indicators by UV-VIS spectroscopy from pH dependence of absorption of basic forms
# Conditions: not given
row,pKa,Compound
1,9.3,O=C1OC(c2ccc(O)cc2)(c2ccc(O)c([18F])c2)c2ccccc21 (stereo not drawn) [monofluorophenolphthalein]
2,9.75,"O=C1OC(c2ccc(O)cc2)(c2ccc(O)cc2)c2ccccc21 [phenolphthalein, reference compound]"
3,7.2,O=C1OC(c2cc([18F])c(O)c3ccccc23)(c2cc([18F])c(O)c3ccccc23)c2ccccc21 [difluoronaphtholphthalein]
4,8.7,O=C1OC(c2ccc(O)c([18F])c2)(c2ccc(O)c([18F])c2)c2ccccc21 [difluorophenolphthalein]
5,7.95,"O=C1OC(c2ccc(O)c3ccccc23)(c2ccc(O)c3ccccc23)c2ccccc21 [naphtholphthalein, reference compound]"

# More lines, now with the values behind:
row,Compound,pKa
1,"Cc1cc(O)c([18F])cc1C1(c2cc([18F])c(O)c([18F])c2C)OS(=O)(=O)c2ccccc21 (stereo not drawn) [TFCP, trifluorocresolsulfonphthalein]",6.4
2,"Cc1cc(C2(c3cc(C)c(O)c([18F])c3)OS(=O)(=O)c3ccccc32)ccc1O (stereo not drawn) [MFCR, MonoFluoroCresol Red]",7.6
3,"Cc1cc(O)c(C(C)C)cc1C1(c2cc(C(C)C)c(O)c([18F])c2C)OS(=O)(=O)c2ccccc21 (stereo not drawn) [MFTB, MonoFluoro Thymol Blue]",8.25
4,"O=S1(=O)OC(c2ccc(O)cc2)(c2ccc(O)c([18F])c2)c2ccccc21 (stereo not drawn) [MFPR, monofluorophenol red]",7.3
5,"Cc1c(C2(c3cc(C(C)C)c(O)c([18F])c3C)OS(=O)(=O)c3ccccc32)cc(C(C)C)c(O)c1[18F] [DFTB, difluorothymolsulfonphthalein]",7.65
6,"O=S1(=O)OC(c2ccc(O)c([18F])c2)(c2ccc(O)c([18F])c2)c2ccccc21 [DFPR, difluorophenol red]",6.4
7,"O=S1(=O)OC(c2ccc(O)cc2)(c2ccc(O)cc2)c2ccccc21 [Phenol Red, phenolsulfonphthalein, reference compound]",7.9
8,"O=S1(=O)OC(c2ccc(O)c([18F])c2)(c2cc([18F])c(O)c([18F])c2)c2ccccc21 (stereo not drawn) [TFPR, trifluorophenol red]",5.9
9,"Cc1cc(C2(c3cc(C)c(O)c([18F])c3)OS(=O)(=O)c3ccccc32)cc([18F])c1O [DFCR, DiFluoroCresol Red]",6.8

# Same assay, conditions: UV-VIS, pH dependence of absorption of basic form; acetate, phosphate, TRIZMA, borate buffers
row,pKa,Compound
1,8.85,"Cc1cc(O)c(C(C)C)cc1C1(c2cc(C(C)C)c(O)cc2C)OS(=O)(=O)c2ccccc21 [Thymol Blue, thymolsulfonphthalein, reference compound]"
2,7.7,monofluoronaphtholphthalein

# More lines, now with the values behind:
row,Compound,pKa
1,"Cc1cc(C2(c3ccc(O)c(C)c3)OS(=O)(=O)c3ccccc32)ccc1O [Cresol Red, ortho-cresolsulfonphthalein, reference compound]",8.2
2,"Cc1cc(O)ccc1C1(c2ccc(O)cc2C)OS(=O)(=O)c2ccccc21 [CP, cresolsulfonphthalein, reference compound]",8.3
